Results published in patent US20220370464A1, “COMPOSITIONS AND METHODS OF TREATING OR PREVENTING OCULAR INFECTIONS WITH FILOCICLOVIR” (Microbiotix, Inc., priority 2019, published 2022).

Tested on: AdV5
Experiment: Immunofluorescence assay of AdV5-infected A549 cells (DBP and hexon staining)
Type: cell-based, adenovirus 5
Settings: 27 hours post-infection
Description: Human A549 cells on glass coverslips in 6-well plates were infected at an MOI of 5 PFU/cell with either AdV5 or AdV6 or were mock-infected. After 1 hour, filociclovir was added to a final concentration of 40, 10, 4, or 0 μM. At 27 hours post-infection, the A549 cells were fixed in paraformaldehyde (3.7% in PBS) and permeabilized with methanol. Cells were stained for the Adenovirus DNA-binding protein (DBP; green staining in images) and adenovirus hexon (red staining in images). DBP staining will be […] and uniform during early AdV infection (prior to AdV DNA replication). DBP associates with replication centers as the infection progresses. The replication centers are initially small “dots” (each dot results from one incoming AdV genome). The replication centers will expand and “multiply” as DNA replication takes place. The nuclei become enlarged and misshapen as infection progresses. AdV hexon, the most abundant component of the AdV viral capsid, is not expressed until after DNA replication is taking place and is therefore considered to be a “late” AdV protein.

Nc1nc2c(ncn2/C=C2/CC2(CO)CO)c(=O)[nH]1 [Filociclovir, 2-amino-9-{(Z)-[2,2-bis(hydroxymethyl)cyclopropylidene]methyl}-3,9-dihydro-6H-purin-6-one]
hexon-positive cells (AdV5, A549, 4 μM): Some hexon-positive cells
hexon-positive cells (AdV5, A549, 10 μM): extremely few hexon-positive cells
hexon-positive cells (AdV5, A549, 40 μM): No hexon-positive cells
